Legend:
bone marrow cells = assay: Engraftment of Tg:ActinGFP bone marrow cells in irradiated Rag-/-γc-/- mice, GFP+ cells by cytometry; type: in vivo
Excerpt: For bone marrow analysis, animals were sacrificed and bone marrow was flushed and filtered through 40 μm cell strainer. The bulk was then directly assessed using Gallios A94303 (Beckman Coulter) and analysed with Kaluza flow cytometry software.
In order to investigate the potential effect of fluoxetine and vortioxetine on the bone marrow engraftment potential, Rag^−/−γc^−/− immunodeficient mice were used. These mice were irradiated at 95 cGy and then injected intravenously with 2 million cells taken from Tg:ActinGFP mouse (Okabe et al., 1997), to track the fate of the grafted cells.
Rag^−/−γc^−/− mice were treated with fluoxetine per os at 18 mg/Kg for 6 weeks. […] The number of GFP+ cells were investigated after 5 weeks in the bone marrow (the treatment was never discontinued). 63.7%±6.5 of GFP+ cells were detected in the placebo mice and 80.7%±8.4 GFP+ cells in the fluoxetine treated mice (p=0.0023, n=7, FIG. 2b,c). There was thus a 25% increase in engraftment efficiency in the fluoxetine treated animals.
To investigate the potential effect of vortioxetine on the engraftment potential, the same approach was used. The Rag^−/−γc^−/− were treated for 12 days by intra peritoneal injections at 20 mg/Kg. Twelve days after the beginning of the treatment, the mice were irradiated at 95 cGy and intravenously grafted with 2 million freshly isolated bone marrow cells from Tg:ActinGFP. 5 weeks after grafting the mice were sacrificed and bone marrow was flushed and analysed (FIG. 2d). The number of GFP+ cells was investigated after 5 weeks in the bone marrow (the treatment was never discontinued). 65.8%±5.5 cells were found in the placebo mice while 80.2%±5.8 cells were found in the vortioxetine treated animals (p=0.0079, n=5, FIG. 2e). There was thus a 21% increase in engraftment potential of bone marrow cells after vortioxetine treatment.
To further characterise the timing of vortioxetine beneficial effects, the previous experiment was repeated without 12 days of pre-treatment (FIG. 2e,f). Rag^−/−γc^−/− were irradiated and grafted 2 hours post irradiation fresh bone marrow from Tg:ActinGFP mice. The same placebo was used displaying 65.8%±5.5 of GFP+ cells and 77.2%7.6 GFP+ cells in the vortioxetine treated animals at the time of the irradiation (p=0.04, n=5, FIG. 2e,g). A similar increase in engraftment potential (17%) was observed when animals were not pre-treated.

muscle stem cells [1] = settings: fluoxetine 18 mg/Kg for 6 weeks; after 21 days; n=8; placebo 25.7%±8.7
Procedure: Mice were anesthetised and injured with cardiotoxin 18 hours before grafting in the tibialis anterior. Before grafting the mice were anesthetised again and grafted with 10,000 cells in 40 nl in PBS. Mice were kept for 28 days until muscle regeneration was complete. […] Mice were sacrificed 5 weeks after the injection.
Tibialis anterior was carefully dissected and snap frozen in liquid-nitrogen-cooled isopentane for a few minutes and stored at −80° C. prior to cryosectioning (10 μm sections). Sections were kept at room temperature overnight before staining. Sections were then rehydrated in PBS for 10 minutes and fixed in 10% formalin for 3 minutes. The sections were then routinely stained with PLAP antibody manually.
Fluoxetine treatment was provided at 18 mg/Kg for 6 weeks to Rag^−/−γc^−/− mice. The tibialis anterior (TA) was injured and 18 h post injury 10,000 satellite cells (SC) coming from Tg:Pax7nGFP:PLAP:MyHC2E3FLacZ triple transgenic mice were grafted to the Rag^−/−γc^−/− mice pre-treated with fluoxetine.

muscle stem cells [2] = assay: Engraftment of grafted muscle stem cells (satellite cells) in cardiotoxin-injured tibialis anterior of Rag-/-γC-/- mice; type: in vivo; settings: 28 days post injury
Procedure: For image analysis, ImageJ 1.46r software was using between 10 different photos randomly taken per section and 3 sections minimum per experimental group. The pictures were converted in a binary image and then the pixel values were collected. For fibre size, the sections were immunostained with rabbit anti Laminin (Sigma-Aldrich #L9393) diluted at 1/200, overnight at 4° C. Secondary Donkey ant Rabbit 488 (DL488 JacksonImmuno #711486152) were used at 1/200 45 minutes at room temperature. The fibre perimeter was done automatically by using Pixcavator® software.
In order to investigate the potential effect of fluoxetine and vortioxetine on the muscle engraftment potential, Rag^−/−γC^−/− immunodeficient mice (Sanchez et al., 2013) were used in this study. Mice were injured with cardiotoxin in the tibialis anterior (TA) and injected with 10,000 satellite cells (SC) 24 hours after the injury. The satellite cells (SC) were obtained from Tg:Pax7nGFP::PLAP mice (Deprimo et al., 1996; Rocheteau et al., 2012), allowing the prospective isolation of a pure population of SC by FACS (Pax7 being a specific marker of SC) and the follow up (PLAP placental alkaline phosphatase being an ubiquitous marker). The TA had been sampled 28 days post engraftment and the number of PLAP fibres was counted.
The Rag^−/−γC^−/− were treated for 6 weeks with fluoxetine per os at 18 mg/Kg at the time of the graft and the treatment continued during the regeneration process (FIG. 1a). When regeneration was completed 28 days post injury, the percentage of PLAP positive fibres was 20.5%±6.5 against 36%±6.2 in the treated animals (p=0.016; n=5, FIG. 1b-d).
To investigate the potential effect of vortioxetine on the engraftment potential, the same approach was used. The Rag^−/−γC^−/− were treated for 12 days by intra peritoneal injections at 20 mg/Kg. Twelve days after the beginning of the treatment, the mice were injured and grafted with Pax7nGFP:PLAP SC. The treatment was continuous during the entire regenerative process (FIG. 1e). 28 days post injury the TA were sampled and stained for Laminin and PLAP. 19%±7.7 fibres were PLAP+ after placebo treatment against 36.1%±5.7 in the vortioxetine treated animals (p=0.028, n=4, FIG. 1f-h).

**Q.** Which results are given for `CNCCC(Oc1ccc(C(F)(F)F)cc1)c1ccccc1` (centres unmarked) [fluoxetine]?
**A.** GFP+ cells in the bone marrow (bone marrow cells; fluoxetine per os 18 mg/Kg for 6 weeks before irradiation/graft, never discontinued, 5 weeks after grafting, n=7, placebo 63.7%±6.5): 80.7%±8.4; increase in engraftment efficiency versus placebo (bone marrow cells; fluoxetine per os 18 mg/Kg, 6 weeks pre-treatment, 5 weeks after grafting): 25%; percentage of fibers PLAP+ (coming from the graft) (muscle stem cells [1]): 39%±6.6; percentage of PLAP positive fibres (muscle stem cells [2]; fluoxetine per os 18 mg/Kg for 6 weeks before graft and continued, n=5, placebo 20.5%±6.5): 36%±6.2; engraftment potential of the injected SC versus placebo (muscle stem cells [2]; fluoxetine per os 18 mg/Kg, 6 weeks pre-treatment): almost doubled

**Q.** `Cc1ccc(Sc2ccccc2N2CCNCC2)c(C)c1` [vortioxetine, 1-[2-(2,4-Dimethylphenylsulfanyl)phenyl]piperazine] was tested. Which “increase in engraftment potential of bone marrow cells versus placebo” value (bone marrow cells; vortioxetine 20 mg/Kg, 12 days pre-treatment, 5 weeks after grafting) did it give?
**A.** The value was 21%.

**Q.** And the “GFP+ cells in the bone marrow” value (bone marrow cells; vortioxetine intra peritoneal 20 mg/Kg for 12 days before irradiation/graft, never discontinued, 5 weeks after grafting, n=5, placebo 65.8%±5.5)?
**A.** Its value is 80.2%±5.8.

**Q.** What about the “GFP+ cells in the bone marrow” value (bone marrow cells; vortioxetine started at the time of the irradiation, without 12 days of pre-treatment, 5 weeks after grafting, n=5, placebo 65.8%±5.5) of the same molecule?
**A.** The value was 77.2%.

**Q.** And the “increase in engraftment potential versus placebo” value (bone marrow cells; vortioxetine, animals not pre-treated)?
**A.** Its value is 17%.

**Q.** And the “percentage of PLAP+ fibres” value (muscle stem cells [2]; vortioxetine intra peritoneal 20 mg/Kg for 12 days before graft and continued, n=4, placebo 19%±7.7)?
**A.** Its value is 36.1%±5.7.

**Q.** And the “engraftment potential of the injected SC versus placebo” value (muscle stem cells [2]; vortioxetine intra peritoneal 20 mg/Kg, 12 days pre-treatment)?
**A.** The value was “more than doubled”.
